Results on five molecules are retold here after patent US6962920B2, “Pyrimidine derivatives and methods of making and using these derivatives” (Duquesne University of the Holy Ghost, priority 1992, dated 2005).

Like-named read-outs stand apart in the source and are kept apart here.

One data set deals with T1, CCRF-CEM DHFR (Homo sapiens, UniProt P00374).
T1 construct: DHFR isolated from human CCRF-CEM leukemic cells; endogenous in cells; host or cells: CCRF-CEM human leukemic cells
The data set is described as follows: Inhibition of DHFR isolated from human CCRF-CEM leukemic cells. Particulars: Table 17. Type of data set: biochemical.

In another data set the target is human recombinant TS (Homo sapiens, UniProt P04818). Briefly: Inhibition of human recombinant TS. Type of data set: biochemical. Conditions: Table 17; read-out: Human REC TS IC50.
Another data set deals with CCRF-CEM cells. The data set is described as follows: Growth inhibition of CCRF-CEM human leukemia cells, continuous exposure. Type of data set: cell-based.
Data set [1] concerns the target T2, CCRF-CEM human leukemia cell folylpolyglutamate synthetase (Homo sapiens, UniProt Q05932).
T2 construct: substrates for human leukemia cell CCRF-CEM folylpolyglutamate synthetase; endogenous in cells; host or cells: CCRF-CEM human leukemia cells
T2 sequence (Q05932 43-587): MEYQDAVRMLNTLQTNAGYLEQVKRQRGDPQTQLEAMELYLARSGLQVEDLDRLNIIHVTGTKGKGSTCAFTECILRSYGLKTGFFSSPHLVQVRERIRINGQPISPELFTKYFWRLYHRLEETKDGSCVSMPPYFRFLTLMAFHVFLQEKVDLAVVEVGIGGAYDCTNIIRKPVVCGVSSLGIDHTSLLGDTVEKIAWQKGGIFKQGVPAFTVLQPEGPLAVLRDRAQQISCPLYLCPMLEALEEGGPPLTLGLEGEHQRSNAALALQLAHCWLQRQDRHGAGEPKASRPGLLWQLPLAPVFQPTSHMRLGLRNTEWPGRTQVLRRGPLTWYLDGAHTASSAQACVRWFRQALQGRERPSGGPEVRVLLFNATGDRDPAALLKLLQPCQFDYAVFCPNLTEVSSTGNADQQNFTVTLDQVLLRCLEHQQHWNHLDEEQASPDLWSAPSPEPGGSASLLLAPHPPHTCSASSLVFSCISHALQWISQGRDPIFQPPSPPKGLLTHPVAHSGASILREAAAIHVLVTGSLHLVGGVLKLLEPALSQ
Briefly: Substrate activity for CCRF-CEM folylpolyglutamate synthetase. Type of data set: biochemical. Conditions: Table 18. On the procedure: (§1) Aminopterin is a classical 2,4-diamino antifolate substrate.
(§2) Compounds 33 and 34 were also evaluated for their substrate activity in CCRF-CEM human leukemia folylpolyglutamate synthetase; the compounds were compared against aminopterin.

A further data set addresses L. casei DHFR (Lacticaseibacillus casei, UniProt P00381). Briefly: Inhibition of Lactobacillus casei DHFR. Type of data set: biochemical.
A further data set has as its target L. casei TS (Lacticaseibacillus casei, UniProt P00469). The data set is described as follows: Inhibition of thymidylate synthase (TS), L. casei. Type of data set: biochemical, Lactobacillus casei.
For data set [2], the target named is E-coli thymidylate synthase (ecTS) (Escherichia coli, UniProt P0A884). Briefly: Inhibition of E. coli thymidylate synthase. Type of data set: biochemical. Conditions: b353; read-out: inhibition of TS from E. coli. On the procedure: All of the compounds were tested against human cells, L. casei, E. coli, and S. faecium.
The target in another data set is TS from P. carinii (Pneumocystis carinii, UniProt P13100). Briefly: Inhibition of P. carinii TS. Type of data set: biochemical. Particulars: b353.
A further data set relates to R30dm cells. Briefly: Growth inhibition of R30dm subline (decreased polyglutamate synthase). Type of data set: cell-based. Particulars: Homo sapiens.
A further data set has as its system R1 cells. The data set is described as follows: Growth inhibition of R1 subline (increased DHFR). Type of data set: cell-based. Particulars: Homo sapiens; Table 23; continuous exposure; read-out: Growth inhibition EC50, R1 (↑ DHFR).
For the next data set, the system named is R2 cells. The data set is described as follows: Growth inhibition of R2 subline (MTX-transport deficient). Type of data set: cell-based. Conditions: Homo sapiens; Table 23; continuous exposure; read-out: Growth inhibition EC50, R2 (↓ transport).
The test system of another data set is A253. The data set is described as follows: Growth inhibition of A253 human squamous carcinoma cell line. Type of data set: cell-based. Particulars: Table 19, continuous exposure (0 to 120 hours). How it is done:
The performance of these compounds was evaluated against MTX.

In the next data set the test system is FaDu. The data set is described as follows: Growth inhibition of FaDu human squamous carcinoma cell line. Conditions: Homo sapiens, FaDu; Table 19; continuous exposure (0 to 120 hours); read-out: Growth inhibition EC50, FaDu. Type of data set: cell-based.
The subject of a further data set is FaDu cells. The data set is described as follows: Protection of FaDu cells from growth inhibition by hypoxanthine, thymidine, leucovorin. Type of data set: cell-based, human. On the procedure: Compound 113-161 was also tested for its ability to inhibit the growth of FaDu human squamous cell carcinoma cell lines. Performance was tested against MTX using hypoxanthine (Hx) and Thymidine (TdR).
Protection after 120 hours with di-LV was also determined. All of the tested compounds reversed inhibition with leucovorin.

Substrate in data set [3]: Nc1nc(N)c2c(CCc3ccc(C(=O)N[C@@H](CCC(=O)O)C(=O)O)cc3)coc2n1
The data set is described as follows: Substrate activity for CCRF-CEM folylpolyglutamate synthetase. Type of data set: biochemical, human. Conditions: other: Table 18; substrate for FPGS. How it is done: as §1, §2

Substrate in data set [4]: Nc1nc(N)c2nc(CNc3ccc(C(=O)N[C@@H](CCC(=O)O)C(=O)O)cc3)cnc2n1
Described as above. Conditions: substrate for FPGS. Type of data set: biochemical, human. How it is done:
as §1, §2

[5] abbreviates: Table 19, continuous exposure (0 to 120 hours), read-out: Growth inhibition EC50, CCRF-CEM.

L. casei DHFR, sequence (P00381 whole entry): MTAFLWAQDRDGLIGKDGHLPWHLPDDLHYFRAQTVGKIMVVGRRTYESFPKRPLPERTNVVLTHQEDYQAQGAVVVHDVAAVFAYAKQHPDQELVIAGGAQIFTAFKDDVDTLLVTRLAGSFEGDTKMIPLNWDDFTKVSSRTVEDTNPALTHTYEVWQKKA
T1 sequence (P00374 whole entry): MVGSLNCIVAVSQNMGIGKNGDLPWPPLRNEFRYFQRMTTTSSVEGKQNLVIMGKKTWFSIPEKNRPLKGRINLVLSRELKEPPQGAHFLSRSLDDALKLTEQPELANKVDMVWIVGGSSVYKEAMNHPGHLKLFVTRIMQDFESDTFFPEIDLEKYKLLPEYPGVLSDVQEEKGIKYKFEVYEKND
human recombinant TS, sequence (P04818 whole entry): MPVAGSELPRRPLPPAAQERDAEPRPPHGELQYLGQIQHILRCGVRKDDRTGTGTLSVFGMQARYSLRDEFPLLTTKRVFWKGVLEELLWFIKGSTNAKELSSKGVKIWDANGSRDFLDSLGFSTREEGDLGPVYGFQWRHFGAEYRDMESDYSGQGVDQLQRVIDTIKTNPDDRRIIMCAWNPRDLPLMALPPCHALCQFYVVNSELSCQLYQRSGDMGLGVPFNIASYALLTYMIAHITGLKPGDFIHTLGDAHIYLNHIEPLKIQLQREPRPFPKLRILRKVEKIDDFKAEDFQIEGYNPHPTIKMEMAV
E-coli thymidylate synthase (ecTS), sequence (P0A884 whole entry): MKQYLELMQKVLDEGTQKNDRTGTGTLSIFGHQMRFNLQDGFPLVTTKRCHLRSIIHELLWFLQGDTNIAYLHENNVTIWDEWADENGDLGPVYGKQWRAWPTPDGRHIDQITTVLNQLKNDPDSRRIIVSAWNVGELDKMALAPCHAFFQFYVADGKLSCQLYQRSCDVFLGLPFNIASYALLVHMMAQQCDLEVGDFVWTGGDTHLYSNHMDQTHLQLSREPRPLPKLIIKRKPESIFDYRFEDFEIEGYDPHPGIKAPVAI
TS from P. carinii, sequence (P13100 whole entry): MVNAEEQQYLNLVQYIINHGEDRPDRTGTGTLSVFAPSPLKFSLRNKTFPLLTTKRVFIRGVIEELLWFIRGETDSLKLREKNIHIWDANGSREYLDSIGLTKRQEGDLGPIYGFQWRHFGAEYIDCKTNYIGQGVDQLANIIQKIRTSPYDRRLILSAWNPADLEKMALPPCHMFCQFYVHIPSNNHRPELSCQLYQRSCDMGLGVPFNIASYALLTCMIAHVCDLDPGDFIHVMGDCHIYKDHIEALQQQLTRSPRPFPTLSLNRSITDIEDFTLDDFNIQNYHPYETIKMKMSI
L. casei TS, sequence (P00469 whole entry): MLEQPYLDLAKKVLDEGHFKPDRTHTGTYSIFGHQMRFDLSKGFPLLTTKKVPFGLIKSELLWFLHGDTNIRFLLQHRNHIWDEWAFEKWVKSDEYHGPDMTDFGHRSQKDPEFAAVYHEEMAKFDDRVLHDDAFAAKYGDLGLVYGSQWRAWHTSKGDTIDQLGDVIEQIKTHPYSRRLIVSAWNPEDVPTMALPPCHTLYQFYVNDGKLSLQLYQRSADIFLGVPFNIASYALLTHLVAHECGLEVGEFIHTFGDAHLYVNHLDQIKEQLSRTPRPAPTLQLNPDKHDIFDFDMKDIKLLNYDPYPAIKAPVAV

As a reminder, the EC50 is the concentration that produces a half-maximal response. As for `Nc1nc(N)c2c(CNCc3ccc(C(=O)N[C@@H](CCC(=O)O)C(=O)O)cc3)coc2n1` [Compound 34], the IC50 is 30500 nM at CCRF-CEM DHFR and 63000 nM at human recombinant TS. The half-maximal effective concentration (EC50) with CCRF-CEM cells (setting [5]) was determined as 48000 nM. In addition, the “Vmax(rel)” value in data set [1] was 0.6.

As to `Nc1nc2[nH]cc(CNc3ccc(C(=O)N[C@@H](CCC(=O)O)C(=O)O)cc3)c2c(=O)[nH]1` [Compound 407], the IC50 is 6900 nM at L. casei DHFR, 46000 nM at L. casei TS, more than 12000 nM in [2] and 5800 nM on TS from P. carinii. Besides, the EC50 with CCRF-CEM cells (Table 23, continuous exposure, read-out: Growth inhibition EC50, CEM (sensitive)) amounted to 79 nM; with R30dm cells (Table 23, continuous exposure, read-out: Growth inhibition EC50, R30dm (decreased FPGS)), 120 ± 10 nM; with R1 cells it was 200 ± 20 nM; in the data set on R2 cells it was 310 ± 30 nM.

For the molecule `Nc1nc(N)c2c(CCc3ccc(C(=O)N[C@@H](CCC(=O)O)C(=O)O)cc3)coc2n1` [Compound 33, N-[4-[2-(2,4-diaminofuro[2,3-d]pyrimidin-5-yl)ethyl]-benzoyl]-L-glutamic acid], the IC50 on L. casei DHFR (Table 17, read-out: L. casei DHFR IC50) was determined as 100 nM; at CCRF-CEM DHFR, 250 nM; on human recombinant TS it was 220000 nM. Besides, the concentration giving a half-maximal response (EC50) worked out at 290 nM with CCRF-CEM cells (setting [5]); 4250 nM in the data set on R30dm cells (Table 19, continuous exposure (0 to 120 hours), read-out: Growth inhibition EC50, R30DM); 540 ± 90 nM with A253; 18 ± 20 nM in the data set on FaDu. In data set [1], the “Vmax(rel)” value stood at 0.65 ± 0.01.

`Cc1nc(N)nc2[nH]cc(CCc3ccc(C(=O)N[C@@H](CCC(=O)O)C(=O)O)cc3)c12` [Compound 113-161]: the “protection study with hypoxanthine (Hx) and thymidine (TdR)” value with FaDu cells was “almost completely reversed the TS inhibition”.

B1: CCRF-CEM human leukemia cell folylpolyglutamate synthetase (Homo sapiens) (protein)
chain: T2 sequence (Q05932 43-587)
notes: substrates for human leukemia cell CCRF-CEM folylpolyglutamate synthetase; endogenous in cells; host or cells: CCRF-CEM human leukemia cells
As a reminder, the Km is the substrate concentration at which the rate is half of its maximum. As for B1, the Km in data set [3] came to 8.5 ± 2.1 µM; in [4] (other: Table 10), 4.3 ± 0.2 µM; in [4] (other: Table 18) it was 4.8 ± 0.7 µM.
